Source: US20230109839A1, “THERAPEUTIC AGENT FOR TAUOPATHIES” (SUMITOMO PHARMA CO., LTD., priority 2020, published 2023)
Entries after “also recorded” stand apart in the source; their conditions may differ. Where two headings read alike, the source gives them in different places.

Assays:
[1] = system: phosphorylated tau oligomer; experiment: Evaluation of phosphorylated tau oligomers in brain of APP-Tg mice, Western blotting (Test 4); format: in vivo, mouse; settings: for Reducing effect of phosphorylated tau oligomer: 7-10 days, with ABT 1 mg/g-food; for reducing effect of tau oligomer: with food for 7-10 days, ABT 1 mg/g-food depending on the compound, brain, anti-oligomerized tau antibody TOMA-1
Experimental: Test 4: Evaluation of Phosphorylated Tau Oligomers Using APP-Tg Mice
This test is a test to quantify the oligomer of phosphorylated tau in the brain to evaluate the action of a compound. […] The APP-Tg mice used herein were prepared by the method described in Test 3.
The test compound administered with food to APP-Tg mice for 7-10 days. At this time, in order to increase the blood concentration of the test compound, ABT was used in combination with a mixed diet of 1 mg/g-food depending on the compound. After the administration, the brain was collected, and the protein is extracted from the collected brain using TBS (Tris Buffered Saline) or sarcosyl, and then SDS-PAGE (sodium dodecyl sulfate-polyacrylamide gel electrophoresis) of the soluble or insoluble fraction was performed. After that, Western blotting was performed using an anti-oligomerized tau antibody (Anti-Tau, oligomeric, clone TOMA-1), and the effect of the test compound was evaluated by quantifying the band amount of the phosphorylated tau oligomer.
The reducing effect of phosphorylated tau oligomer was calculated by the following formula, and from the calculated values, the results were defined as follows: 0-25%: +, 25-50%: ++, 50-75%: +++, and 75-100%: ++++. The significant difference from the vehicle-administered group was determined using the Student t-test. For the band amount, the value corrected by the β-actin band amount was used.
Reducing effect of phosphorylated tau oligomer={(band amount of oligomerized tau in vehicle-administered group−band amount of oligomerized tau in test compound-administered group)/band amount of oligomerized tau in vehicle-administered group}×100

[2] = target: T1, human Nav1.1 (Homo sapiens, UniProt P35498); experiment: Amplification of Nav1.1-derived voltage-gated sodium current (Nav1.1 current), automated patch clamp (Test 1); format: cell-based
T1 construct: host or cells: HEK293
In short: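 Compound-induced change in ramp-evoked sodium current peak and AUC was expressed as 100×post/pre ratio minus 100. Recordings used automated patch clamp in voltage-clamp mode on a stable human Nav1.1 HEK293 line, including only cells above 500 pA. Compounds were delivered in extracellular fluid containing 1% DMSO.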

[3] = system: APP-Tg mouse; experiment: Evaluation of the cognitive function by novel object recognition test (NORT) in APP-Tg mice (Test 3); format: in vivo; parameters: key to Discrimination index: (novel − known search time)/(novel + known search time); settings: for improvement of cognitive function (NORT) / improvement of cognitive function (NORT), summary of the above results: APP-Tg mice; for improvement of cognitive function (NORT): Elacridar orally 100 mg/kg 2 hours before, test compound intraperitoneally 30 minutes before the first trial run; for improvement of cognitive function (NORT), summary of the above results: alone, with Elacridar or with ABT depending on the compound; for Discrimination index: APP-Tg mouse, with Elacridar 100 mg/kg orally 2 hours before first trial run
Experimental: Test 3: Evaluation of the Cognitive Function by Novel Object Recognition Test (Hereinafter, Also Referred to as “NORT”)
The present test is for evaluating the improvement of cognitive function with the test compounds. When an APP-Tg mouse which is an AD (Alzheimer's disease) model mouse is evaluated by NORT, the memory for a familiar object decreases depending on the time interval between the first trial run (training) and the second trial run (test). For example, if the first trial run is done and 3 hours later the second one is done, there is no difference in the searching times between novel object and known object for the APP-Tg mouse, compared with a healthy mouse. Thus, the APP-Tg mouse suffers from significant amnesia.
The APP-Tg mouse used herein was prepared by constructing an expression cassette linked to human APP751 isoform to which Swedish (K670N/M671L) and Indiana (V717F) mutation were introduced at downstream of mouse Thy-1 promoter, then injecting the expression cassette into a mouse fertilized egg, and transplanting it to a host mouse. The prepared mouse presents with intracerebral AB accumulation and cognitive dysfunction from early on, and thus the mouse can be used for the evaluation of cognitive function. APP-Tg mouse has been also reported in Non-patent literature 6.
To the prepared APP-Tg mouse, the test compound was administered, and then the first trial run was done for the mouse 30 minutes after the intraperitoneal administration or after 10 days of mixed diet administration. The second trial run was done 3 hours after the first trial run, and the searching times between novel object and known object in the second trial were evaluated. The discrimination index was calculated from the searching time for novel object and known object in the second trial run, and the improvement of cognitive function of the test compound was confirmed by comparing the discrimination index with the test compound-unadministered group as an index of the cognitive function. The discrimination index was calculated by the following formula.
Discrimination index={(Searching time for novel object)−(Searching time for known object)}/{(Searching time for novel object)+(Searching time for known object)}
The present test can be also done with a combination with Elacridar (Tokyo Chemical Industry Co., Ltd.). Elacridar can inhibit P-gp and BCRP which are excretion transporters expressed in the blood-brain barrier and thereby Elacridar has the effect of improving the transferability of the test compound to the brain. Eracridal was orally administered to APP-Tg mice at 100 mg/kg 2 hours before the first trial run, and then the test compound was intraperitoneally administered to the mice 30 minutes before the first trial run according to the above method. And, the improvement of cognitive function was evaluated. The significant difference from the vehicle-administered group was determined using the parametric Dunnett multiple comparison test.
And, the present test can be also done with a combination with ABT (1-aminobenzotriazole) (Tokyo Chemical Industry Co., Ltd.). ABT has the effect of improving the blood concentration of the test compound by inhibiting CYP and suppressing metabolism. The test compound and ABT (1 mg/g-food) were administered with food to APP-Tg mice for 10 days, and then the improvement of cognitive function was evaluated according to the above method. The significant difference from the vehicle-administered group was determined using the parametric Dunnett multiple comparison test.

[4] = HEK293, Concentration for evaluation 1 μM, HEK293 cell line stably expressing human Nav1.1, read-out: Nav1.1 current amplification rate (%)
[5] = Concentration for evaluation 10 μM, HEK293 cell line stably expressing human Nav1.1
[6] = HEK293, concentration for evaluation 1 μM, HEK293 stably expressing human Nav1.1, read-out: Nav1.1 current amplification rate (%)
[7] = Concentration for evaluation 1 μM, HEK293 cell line stably expressing human Nav1.1

SMILES: CN(c1ccc(=O)n(CC(=O)N2CCc3c(N4CCOCC4)cccc32)n1)C1CCCC1 [Example 565, 6-[cyclopentyl(methyl)amino]-2-{2-[4-(morpholin-4-yl)-2,3-dihydro-1H-indol-1-yl]-2-oxoethyl}pyridazin-3(2H)-one]
- Reducing effect of phosphorylated tau oligomer ([1]; dose 0.5 mg/g-food): +++ (50-75%: +++)
- Reducing effect of phosphorylated tau oligomer ([1]; dose 4.5 mg/g-food): ++ (25-50%: ++)
- reducing effect of tau oligomer [1]: some reducing effect of tau oligomer; also recorded: strong reducing effect of tau oligomer

SMILES: Cc1ncccc1N1CCN(C(=O)Cn2nc(C3=CCC(C)CC3)ccc2=O)CC1 (stereo not drawn) [Example 410, 6-(4-methylcyclohex-1-en-1-yl)-2-{2-[4-(2-methylpyridin-3-yl)piperazin-1-yl]-2-oxoethyl}pyridazin-3 (2H)-one]
- Reducing effect of phosphorylated tau oligomer ([1]; dose 0.6 mg/g-food): +++ (50-75%: +++)
- Reducing effect of phosphorylated tau oligomer ([1]; dose 2 mg/g-food): + (0-25%: +)
- reducing effect of tau oligomer [1]: some reducing effect of tau oligomer; also recorded: strong reducing effect of tau oligomer
- activation at 3 µM ([2]; HEK293, Concentration for evaluation 3 μM, HEK293 cell line stably expressing human Nav1.1, read-out: Nav1.1 current amplification rate (%)): 66%

SMILES: CN(c1cnc2cnn(CC(=O)Nc3ccn4ncnc4c3)c2n1)C1CCCC1 [Example 593, 2-{6-[cyclopentyl(methyl)amino]-1H-pyrazolo[3,4-b]pyrazin-1-yl}-N-([1,2,4]triazolo[1,5-a]pyridin-7-yl)acetamide]
- activation at 1 µM [2, 4]: 78%
- improvement of cognitive function (NORT) [3]: some improvement of cognitive function
- improvement of cognitive function (NORT), summary of the above results [3]: some improvement of cognitive function
- Discrimination index ([3]; dose 60 (mg/g i.p.)): 0.20
- Discrimination index [3]: 0.11

SMILES: O=C(Cn1ncc2ncc(N3CCC4(CC4)C(F)(F)C3)nc21)Nc1ccn2ncnc2c1 [Example 609, 2-[6-(4,4-difluoro-6-azaspiro[2.5]octan-6-yl)-1H-pyrazolo[3,4-b]pyrazin-1-yl]-N-([1,2,4]triazolo[1,5-a]pyridin-7-yl)acetamide]
- activation at 1 µM [2, 4]: 84%
- improvement of cognitive function (NORT) ([3]; 100 mg/kg): some improvement of cognitive function; also recorded: strong improvement of cognitive function
- improvement of cognitive function (NORT), summary of the above results [3]: some improvement of cognitive function
- Discrimination index ([3]; dose 60 (mg/g i.p.)): 0.29
- Discrimination index [3]: 0.29

SMILES: Cc1cc(NC(=O)Cn2nc(C3=CCC(C)CC3)ccc2=O)cc(C)n1 (stereo not drawn) [Example 364, N-(2,6-dimethylpyridin-4-yl)-2-[3-(4-methylcyclohex-1-en-1-yl)-6-oxopyridazin-1(6H)-yl]acetamide]
- Reducing effect of phosphorylated tau oligomer ([1]; dose 0.6 mg/g-food): + (0-25%: +)
- Reducing effect of phosphorylated tau oligomer ([1]; dose 2 mg/g-food): + (0-25%: +)
- activation at 1 µM [2, 4]: 25%

SMILES: CC1CCN(c2ccc(=O)n(CC(=O)Nc3ccn4ccnc4c3)n2)CC1 [Example 72]
- Nav1.1 current amplification rate (%) [2, 5]: 119%

SMILES: CN(c1ncc2cnn(CC(=O)Nc3cnc4cccnc4c3)c2n1)C1CC(C)(C)C1 [Example 844]
- activation at 1 µM [2, 6]: 221%

SMILES: CC1CCN(c2ccc(=O)n(CC(=O)Nc3ccc(F)nc3)n2)CC1 [Example 58]
- Nav1.1 current amplification rate (%) [2, 5]: 26%

SMILES: CC(=O)N1CC(c2cccc3c2CCN3C(=O)Cn2ncc3ncc(N(C)C4CCC4)nc32)C1 [Example 695]
- Nav1.1 current amplification rate (%) [2, 7]: 219%

SMILES: CC1(C)CCCN(c2ccc(=O)n(CC(=O)Nc3ccc(C#N)cc3)n2)C1 [Example 22]
- Nav1.1 current amplification rate (%) [2, 5]: 110%

SMILES: CC1CC=C(c2ccc(=O)n(CC(=O)N3CCc4c(CN5CCCC5)cccc43)n2)CC1 (stereo not drawn) [Example 271]
- Nav1.1 current amplification rate (%) ([2]; Concentration for evaluation 3 μM, HEK293 cell line stably expressing human Nav1.1): 48%

SMILES: CC1CCN(c2cnc3cnn(CC(=O)Nc4ccn5ncnc5c4)c3n2)CC1 [Example 572, 2-[6-(4-Methylpiperidin-1-yl)-1H-pyrazolo[3,4-b]pyrazin-1-yl]-N-([1,2,4]triazolo[1,5-a]pyridin-7-yl)acetamide]
- activation at 1 µM [2, 4]: 49%

SMILES: CC1CC=C(c2ccc(=O)n(CC(=O)N3CC=C(c4cncnc4)CC3)n2)CC1 (stereo not drawn) [Example 398]
- Nav1.1 current amplification rate (%) [2, 5]: 175%

SMILES: CC1CCN(c2ncc3cnn(CC(=O)Nc4ccc(C#N)cn4)c3n2)CC1(F)F (stereo not drawn) [Example 850]
- activation at 1 µM [2, 6]: 79%

SMILES: CC1CC=C(c2ccc(=O)n(CC(=O)N3CCC(c4ccncc4)CC3)n2)CC1 (stereo not drawn) [Example 259]
- Nav1.1 current amplification rate (%) [2, 5]: 71%

SMILES: CN1CCN(c2cccc3c2CCN3C(=O)Cn2ncc3ncc(N(C)C4CC4)nc32)CC1 [Example 716]
- Nav1.1 current amplification rate (%) [2, 7]: 45%

SMILES: CN(c1cnc2cnn(CC(=O)N3CCc4c(C5CC5)cccc43)c2n1)C1CC1 [Example 730]
- Nav1.1 current amplification rate (%) [2, 7]: 133%

SMILES: CC1CC=C(c2ccc(=O)n(CC(=O)Nc3cncc(-c4cnn(C)c4)c3)n2)CC1 (stereo not drawn) [Example 378]
- Nav1.1 current amplification rate (%) [2, 7]: 37%

SMILES: CN(C)c1cc(N2CCC3(CCC3)C2)nn(CC(=O)Nc2ccn3ccnc3c2)c1=O [Example 210]
- activation at 10 µM ([2]; HEK293, Concentration for evaluation 10 μM, HEK293 cell line stably expressing human Nav1.1, read-out: Nav1.1 current amplification rate (%)): 178%

SMILES: CC1CC=C(c2ccc(=O)n(CC(=O)N3CCC(Oc4ccccc4)CC3)n2)CC1 (stereo not drawn) [Example 390]
- Nav1.1 current amplification rate (%) [2, 5]: 50%

SMILES: Cc1nccn1-c1ccc(NC(=O)Cn2nc(C3=CCC(C)CC3)ccc2=O)cc1 (stereo not drawn) [Example 361]
- Nav1.1 current amplification rate (%) [2, 7]: 101%

SMILES: CCN(C)c1cnc2cnn(CC(=O)Nc3ccn4ncnc4c3)c2n1 [Example 623]
- Nav1.1 current amplification rate (%) [2, 5]: 25%

SMILES: CN(CC1CC1)c1cnc2cnn(CC(=O)Nc3ccc4ncnn4c3)c2n1 [Example 663]
- Nav1.1 current amplification rate (%) [2, 7]: 13%

SMILES: CC1CC(C)CN(c2ccc(=O)n(CC(=O)Nc3ccc(C#N)cc3)n2)C1 (stereo not drawn) [Example 15]
- Nav1.1 current amplification rate (%) [2, 5]: 10%

SMILES: O=C(Cn1nc(-c2ccc(C(F)(F)F)nc2)ccc1=O)Nc1ccc2ocnc2c1 [Example 453]
- Nav1.1 current amplification rate (%) [2, 5]: 15%

SMILES: CC1CC=C(c2ccc(=O)n(CC(=O)Nc3ccc(-c4cnn(C)c4)nc3)n2)CC1 (stereo not drawn) [Example 375]
- Nav1.1 current amplification rate (%) [2, 5]: 173%

SMILES: CC1CCN(c2ccc(=O)n(CC(=O)Nc3ccc(C(=O)N4CCCC4)cc3)n2)CC1 [Example 79]
- Nav1.1 current amplification rate (%) [2, 5]: 165%
